Patent US11806359B2 (priority 2020, dated 2023)

Key:
[1] = test system: Vero cells
[2] = test system: VERO CCL-81 cells
[3] = test system: HTLV-1; experiment: HTLV-1 transmission in SLB1/huPBMC co-culture, p19Gag ELISA (Example 22); type: cell-based, human T-cell leukemia virus type-1; settings: 15 min or 3 hrs pre-treatment, 72 hrs co-culture
[4] = test system: Vero-E6 cells; settings: African green monkey
[5] = test system: adenovirus; experiment: Antiviral activity against adenovirus; type: cell-based
[6] = test system: HIV-1; settings: cited from earlier work
[7] = test system: HTLV-1; experiment: Virological synapse formation and HTLV-1 transmission, SLB1/pLenti-GFP with huPBMCs, fluorescence microscopy; type: cell-based, human T-cell leukemia virus type-1; settings: in vitro co-culture
[8] = test system: SARS-CoV-2; experiment: SARS-CoV-2 treatment post-infection in VERO CCL-81 cells, viral titer (Example 34); type: cell-based; settings: treated at 12 h and 24 h post-infection, no pretreatment
[9] = test system: HTLV-1; experiment: HTLV-1 replication and p19Gag particle release from SLB1 cells, Anti-HTLV-1 p19Gag ELISA; type: cell-based, human T-cell leukemia virus type-1; settings: SLB1 cells, 10, 50, 100 μg/ml, 72 hrs
[10] = test system: DENV2 (08-10381 Montserrat strain); experiment: CPE-based antiviral assay, DENV2, neutral red readout (Example 14); type: cell-based, Dengue virus; settings: 7 days post infection
Experimental: A CPE-based antiviral assay was performed by infecting target cells in the presence or absence of test compositions, at a range of concentrations. […] cytopathic effects and cell death. […] For CPE-based assays, cell viability was determined with a neutral red readout. Viable cells incorporate neutral red in their lysosomes. Uptake of neutral red relies on the ability of live cells to maintain a lower pH inside their lysosomes than in the cytoplasm, and this active process requires ATP. Once inside the lysosome, the neutral red dye becomes charged and is retained intracellularly. […] The amount of neutral red in solution was quantified by reading the absorbance (optical density) of each well at 490 nm […]
Cytotoxic effects were evaluated in uninfected cells by comparing viability in the presence of inhibitors to the viability of mock-treated cells. Cytotoxicity was determined by an XTT viability assay, which was conducted at the same timepoint as the readout for the corresponding infection assay.
Test compositions were dissolved in 100% methanol. […] When possible, the EC50 and CC50 of the composition was determined for each assay using GraphPad Prism software. […]
Protection of DENV2-induced cytopathic effect (CPE) with Neutral Red readout: For the DENV2 antiviral assay, the 08-10381 Montserrat strain was used. […]

CO[C@H]1C[C@H](O[C@H]2CC[C@@]3(C)[C@H](CC[C@@H]4[C@@H]3CC[C@]3(C)[C@@H](C5=CC(=O)OC5)[C@@H](OC(C)=O)C[C@]43O)C2)O[C@@H](C)[C@@H]1O [oleandrin]
toxicity to Vero cells [1]: not overly toxic | cellular toxicity [2]: no cellular toxicity was observed | transmission of HTLV-1 in co-culture [3]: inhibited the transmission of HTLV-1 | concentration at which cellular toxicity appeared [4]: ≥ 1000 ng/mL | Vero cells remaining viable ([4]; 24 h): about 80% | activity against adenovirus [5]: insufficiently active | anti-viral activity against HIV-1 [6]: anti-HIV activity | formation of virological synapses and transmission of HTLV-1 [7]: inhibited the formation of virological synapses and the transmission of HTLV-1 | antiviral activity post infection with a single treatment [8]: able to exert antiviral activity | HTLV-1 replication or release of p19Gag-containing virus particles [9]: does not significantly inhibit | efficacy against Dengue virus [10]: demonstrates efficacy
